How the values were obtained:
Solubility = type: physicochemical
RIF-1 tumors = experiment: Murine tumor growth delay model (RIF-1 tumors in C3H mice); conditions: same doses, IP; for Median (days to 4×): median tumor volume quadrupling time; for T/C (tumor growth delay ratio): ratio of 4× growth times of treated and untreated control tumors; for Delay (tumor growth delay): versus untreated control
Protocol: C3H mice were inoculated subcutaneously in the flank with 2×10^5 radiation-induced fibrosarcoma cells (RIF-1) to produce experimental tumors. When tumors reached ˜100 mm^3, test compounds (100 uL) were administered intraperitoneally (IP).
Single compound groups received either amonafide (60 mg/kg), caffeine (75 mg/kg), or nicotinamide (1000 mg/kg).
Combination groups received amonafide (60 mg/kg), in combination with either caffeine (75 mg/kg), or nicotinamide (1000 mg/kg).
All compounds were administered at the same concentration as the combination groups (amonafide (60 mg/kg), caffeine (75 mg/kg), nicotinamide (1000 mg/kg). Sequential groups included one group treated with amonafide followed by treatment with caffeine, one group treated with caffeine followed by treatment with amonafide, one group treated with amonafide followed by treatment with nicotinamide, and one group treated with nicotinamide followed by treatment with amonafide.
Four mice were used in each treatment group.
Tumors were measured 3 times a week using Vernier calipers, and tumor volume (V) was calculated according to the formula: [formula]
Where D1-3 are perpendicular diameters measured in millimeters (mm).
Tumor volume quadrupling time was defined as the time (days) for treated and untreated tumors to grow to four times (4×) their initial treatment volume. Tumor growth delay ratio (T/C) was defined as the ratio of 4× growth times of treated (T) and untreated control (C) tumors.

Compound | Solubility in water compared to monohydrochloride salt (Solubility) | Solubility in saline (Solubility; at therapeutic concentrations) | Median (days to 4×) (RIF-1 tumors) | T/C (tumor growth delay ratio) (RIF-1 tumors) | Delay (tumor growth delay) (RIF-1 tumors)
CN(C)CCN1C(=O)c2cccc3cc(N)cc(c23)C1=O [Amonafide, 5-amino-2-[(dimethylamine)ethyl]-1H-benz[de-]isoquinoline-1,3-(2H)-dione] | more soluble in water | soluble in saline at therapeutic concentrations | 7.5 | 1.6 | 2.97
Cn1c(=O)c2c(ncn2C)n(C)c1=O [Caffeine, caffeine] |  |  | 5.5 | 1.2 | 1.01
NC(=O)c1cccnc1 [Nicotinamide, nicotinamide] |  |  | 5.3 | 1.1 | 0.76

— patent US20050288310A1, “Methods of treating cellular proliferative disease using naphthalimide and PARP-1 inhibitors” (priority 2004, published 2005)
